Results published in US20100267561A1, “HERBICIDAL PYRIDAZINONE DERIVATIVES” (priority 2007, published 2010).

What was measured:
Assay type in all cases: in vivo
wild oat (Avena fatua) = experiment: Test C pre-/postemergence plant response
In short: (§1)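 Formulated in a surfactant-containing non-phytotoxic solvent, compounds were tested under controlled growth conditions as preemergence and postemergence treatments. Ratings from 0 (no effect) to 100 (complete control) were assigned visually relative to controls 15 to 25 days later.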

[1] = tested on: winter barley (Hordeum vulgare); experiment: Test C pre-/postemergence plant response
In short: as §1

[2] = tested on: downy bromegrass (Bromus tectorum); experiment: Test C pre-/postemergence plant response
In short: as §1

[3] = tested on: wild mustard (Sinapis arvensis); experiment: Test C pre-/postemergence plant response
In short: as §1

[4] = tested on: spring barley (Hordeum vulgare); experiment: Test C pre-/postemergence plant response
In short: as §1

[5] = tested on: canarygrass (Phalaris minor); experiment: Test C pre-/postemergence plant response
In short: as §1

[6] = tested on: green foxtail (Setaria viridis); experiment: Test C pre-/postemergence plant response
In short: as §1

[7] = tested on: blackgrass (Alopecurus myosuroides); experiment: Test C pre-/postemergence plant response
In short: as §1

[8] = tested on: Italian ryegrass (Lolium multiflorum); experiment: Test C pre-/postemergence plant response
In short: as §1

[9] = tested on: winter wheat (Triticum aestivum); experiment: Test C pre-/postemergence plant response
In short: as §1

[10] = tested on: annual bluegrass (Poa annua); experiment: Test C pre-/postemergence plant response
In short: as §1

[11] = tested on: windgrass (Apera spica-venti); experiment: Test C pre-/postemergence plant response
In short: as §1

[12] = tested on: spring wheat (Triticum aestivum); experiment: Test C pre-/postemergence plant response
In short: as §1

[13] = tested on: pigweed (Amaranthus retroflexus); experiment: Test C pre-/postemergence plant response
In short: as §1

[14] = tested on: ducksalad (Heteranthera limosa); experiment: Test B flooded paddy test plant response; settings: Flood (flooded paddy test), scale 0 to 100, 0 no effect, 100 complete control
In short: (§2)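 2-leaf plants; pots flooded 3 cm above soil; compound added to paddy water; depth maintained. Greenhouse 13–15 d. Visual rating vs controls, 0 (no effect) to 100 (complete control); dash = no result.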

rice (Oryza sativa) = experiment: Test B flooded paddy test plant response; settings: Flood (flooded paddy test), scale 0 to 100, 0 no effect, 100 complete control
In short: as §2

[15] = tested on: umbrella sedge (Cyperus difformis); experiment: Test B flooded paddy test plant response; settings: Flood (flooded paddy test), scale 0 to 100, 0 no effect, 100 complete control
In short: as §2

[16] = Postemergence, 8 g ai/ha, scale 0 to 100, 0 no effect, 100 complete control
[17] = Postemergence, 16 g ai/ha, scale 0 to 100, 0 no effect, 100 complete control
[18] = Postemergence, 31 g ai/ha, scale 0 to 100, 0 no effect, 100 complete control
[19] = Postemergence, 62 g ai/ha, scale 0 to 100, 0 no effect, 100 complete control
[20] = Preemergence, 8 g ai/ha, scale 0 to 100 (0 no effect, 100 complete control)
[21] = Preemergence, 16 g ai/ha, scale 0 to 100 (0 no effect, 100 complete control)
[22] = Preemergence, 31 g ai/ha, scale 0 to 100 (0 no effect, 100 complete control)
[23] = Preemergence, 62 g ai/ha, scale 0 to 100, 0 no effect, 100 complete control

CCc1cc(-c2ccc(F)cc2)nn1-c1c(O)cnn(C)c1=O [Compound 25]
15: Plant response rating, Oat, Wild (wild oat (Avena fatua); [17]) | Plant response rating, Oat, Wild (wild oat (Avena fatua); [20]) | Plant response rating, Oat, Wild (wild oat (Avena fatua); [21]) | Plant response rating, Foxtail, Green [6, 20] | Plant response rating, Bluegrass [10, 18] | Plant response rating, Bluegrass [10, 19]
95: Plant response rating, Oat, Wild (wild oat (Avena fatua); [19]) | Plant response rating, Foxtail, Green [6, 18] | Plant response rating, Ryegrass, Italian [8, 19]
20: Plant response rating, Bromegrass, Downy [2, 19] | Plant response rating, Bromegrass, Downy [2, 20] | Plant response rating, Bromegrass, Downy [2, 21] | Plant response rating, Bromegrass, Downy [2, 22] | Plant response rating, Pigweed [13, 19]
90: Plant response rating, Oat, Wild (wild oat (Avena fatua); [18]) | Plant response rating, Blackgrass [7, 18]
98: Plant response rating, Foxtail, Green [6, 19] | Plant response rating, Blackgrass [7, 19]
5: Plant response rating, Blackgrass [7, 16]
0: Plant response rating, Oat, Wild (wild oat (Avena fatua); [16]) | Plant response rating, Barley, Winter [1, 16] | Plant response rating, Barley, Winter [1, 17] | Plant response rating, Barley, Winter [1, 18] | Plant response rating, Barley, Winter [1, 20] | Plant response rating, Barley, Winter [1, 21] | Plant response rating, Barley, Winter [1, 22] | Plant response rating, Barley, Winter [1, 23] | Plant response rating, Bromegrass, Downy [2, 16] | Plant response rating, Bromegrass, Downy [2, 17] | Plant response rating, Bromegrass, Downy [2, 18] | Plant response rating, Mustard, Wild [3, 16] | Plant response rating, Mustard, Wild [3, 17] | Plant response rating, Mustard, Wild [3, 18] | Plant response rating, Mustard, Wild [3, 19] | Plant response rating, Mustard, Wild [3, 20] | Plant response rating, Mustard, Wild [3, 21] | Plant response rating, Mustard, Wild [3, 22] | Plant response rating, Barley, Spring [4, 16] | Plant response rating, Barley, Spring [4, 17] | Plant response rating, Barley, Spring [4, 18] | Plant response rating, Barley, Spring [4, 20] | Plant response rating, Barley, Spring [4, 21] | Plant response rating, Barley, Spring [4, 22] | Plant response rating, Barley, Spring [4, 23] | Plant response rating, Canarygrass [5, 16] | Plant response rating, Canarygrass [5, 17] | Plant response rating, Canarygrass [5, 18] | Plant response rating, Canarygrass [5, 20] | Plant response rating, Canarygrass [5, 21] | Plant response rating, Blackgrass [7, 20] | Plant response rating, Ryegrass, Italian [8, 16] | Plant response rating, Wheat, Winter [9, 16] | Plant response rating, Wheat, Winter [9, 17] | Plant response rating, Wheat, Winter [9, 18] | Plant response rating, Wheat, Winter [9, 20] | Plant response rating, Wheat, Winter [9, 21] | Plant response rating, Wheat, Winter [9, 22] | Plant response rating, Wheat, Winter [9, 23] | Plant response rating, Bluegrass [10, 16] | Plant response rating, Bluegrass [10, 17] | Plant response rating, Bluegrass [10, 20] | Plant response rating, Windgrass [11, 16] | Plant response rating, Windgrass [11, 17] | Plant response rating, Wheat, Spring [12, 16] | Plant response rating, Wheat, Spring [12, 17] | Plant response rating, Wheat, Spring [12, 18] | Plant response rating, Wheat, Spring [12, 20] | Plant response rating, Wheat, Spring [12, 21] | Plant response rating, Wheat, Spring [12, 22] | Plant response rating, Wheat, Spring [12, 23] | Plant response rating, Pigweed [13, 16] | Plant response rating, Pigweed [13, 17] | Plant response rating, Pigweed [13, 18] | Plant response rating, Pigweed [13, 20] | Plant response rating, Pigweed [13, 21] | Plant response rating, Pigweed [13, 22] | Plant response rating, Pigweed [13, 23] | Plant response rating, Ducksalad ([14]; 62 g ai/ha) | Plant response rating, Ducksalad ([14]; 250 g ai/ha) | Plant response rating, Rice (rice (Oryza sativa); 62 g ai/ha) | Plant response rating, Rice (rice (Oryza sativa); 250 g ai/ha) | Plant response rating, Sedge, Umbrella ([15]; 62 g ai/ha) | Plant response rating, Sedge, Umbrella ([15]; 250 g ai/ha)
30: Plant response rating, Ryegrass, Italian [8, 21]
100: Plant response rating, Foxtail, Green [6, 22] | Plant response rating, Foxtail, Green [6, 23]
40: Plant response rating, Oat, Wild (wild oat (Avena fatua); [22]) | Plant response rating, Oat, Wild (wild oat (Avena fatua); [23]) | Plant response rating, Canarygrass [5, 19] | Plant response rating, Bluegrass [10, 22] | Plant response rating, Bluegrass [10, 23]
50: Plant response rating, Blackgrass [7, 21] | Plant response rating, Windgrass [11, 20]
60: Plant response rating, Ryegrass, Italian [8, 17] | Plant response rating, Ryegrass, Italian [8, 22] | Plant response rating, Windgrass [11, 19]
25: Plant response rating, Foxtail, Green [6, 21] | Plant response rating, Ryegrass, Italian [8, 20]
80: Plant response rating, Foxtail, Green [6, 17] | Plant response rating, Ryegrass, Italian [8, 18]
35: Plant response rating, Bromegrass, Downy [2, 23] | Plant response rating, Canarygrass [5, 23] | Plant response rating, Blackgrass [7, 17] | Plant response rating, Bluegrass [10, 21] | Plant response rating, Windgrass [11, 18]
75: Plant response rating, Blackgrass [7, 22] | Plant response rating, Blackgrass [7, 23] | Plant response rating, Ryegrass, Italian [8, 23] | Plant response rating, Windgrass [11, 21]
10: Plant response rating, Canarygrass [5, 22]
70: Plant response rating, Foxtail, Green [6, 16]
